Where a name gives a salt, the structure may show the parent alone. Read-outs that look alike come from different tables or passages of the source.
How the values were obtained:
[1] = system: Phosphorylated Ribosomal Protein S6 (RPS6) in THP-1 cells; assay: THP-1 RPS6 ELISA assay; assay type: cell-based, Human; conditions: 2 hours compound, 10 nM MCP-1 for 15 minutes, Phospho-RPS6 ELISA, read-out: PI3Kγ_THP1_RPS6_ELISA IC50
Description: Example A. THP-1 RPS6 ELISA Assay
To measure the Phosphorylated Ribosomal Protein S6 (RPS6) in cell lysates, THP-1 cells (Human Acute Monocytic Leukemia) are purchased from ATCC (Manassas, Va.) and maintained in RPMI with 10% FBS (Gibco/Life Technologies, Carlsbad, Calif.). For the assay, THP-1 cells are serum starved overnight in RPMI, then plated in RPMI (2×10^5 cells/well in 90 μL) into 96-well flat-bottom tissue culture treated plates (Corning, Corning, N.Y.), in the presence or absence of a concentration range of test compounds. Covered plates are incubated for 2 hours at 37° C., 5% CO2 then treated with or without 10 nM MCP-1 (MYBioSource, San Diego, Calif.) for 15 minutes at 37° C., 5% CO2. Plates are centrifuged at 1600 RPM and supernatants are removed. Cells are lysed in Lysis Buffer (Cell Signaling, Danvers, Mass.) with Protease Inhibitor (Calbiochem/EMD, Germany), PMSF (Sigma, St Louis Mo.), HALTS (Thermo Fisher, Rockford, Ill.) for 30 min on wet ice. Cell lysates are frozen at −80° C. before testing. The lysates are tested in the Human/Mouse/Rat Phospho-RPS6 ELISA (R&D Systems, Inc. Minn, Minn.). The plate is measured using a microplate reader (SpectraMax M5—Molecular Devices, LLC Sunnyvale, Calif.) set to 450 nm with a wavelength correction of 540. IC50 determination is performed by fitting the curve of inhibitor percent inhibition versus the log of the inhibitor concentration using the GraphPad Prism 5.0 software.

PI3Kδ (p110δ/p85α) = PI3Kδ (p110δ/p85α) (Homo sapiens (Human), UniProt O00329); assay: PI3Kδ scintillation proximity assay; assay type: biochemical; conditions: recombinant human PI3Kδ 3.4 nM, 20 μM PIP2, 2 μM ATP, 120 min, room temperature
Description: Example C. PI3Kδ Scintillation Proximity Assay Materials: [γ-^33P]ATP (10 mCi/mL) and Wheat Germ Agglutinin (WGA) YSi SPA Scintillation Beads was purchased from Perkin Elmer (Waltham, Mass.). Lipid kinase substrate, D-myo-Phosphatidylinositol 4,5-bisphosphate (PtdIns(4,5)P2)D (+)-sn-1,2-di-O-octanoylglyceryl, 3-O-phospho linked (PIP2), CAS 204858-53-7, was purchased from Echelon Biosciences (Salt Lake City, Utah). PI3Kδ (p110δ/p85α) Recombinant Human Protein was purchased from Eurofins (St Charles, Mo.). ATP, MgCl2, DTT, EDTA, MOPS and CHAPS were purchased from Sigma Aldrich (St. Louis, Mo.). The kinase reaction was conducted in polystyrene 384-well Greiner Bio-one white plate from Thermo Fisher Scientific in a final volume of 25 μL. Inhibitors were first diluted serially in DMSO and added to the plate wells before the addition of other reaction components. The final concentration of DMSO in the assay was 2%. The PI3Kδ assay was carried out at room temperature in 20 mM MOPS, pH 6.7, 10 mM MgCl2, 5 mM DTT and CHAPS 0.03%. Reactions were initiated by the addition of ATP, the final reaction mixture consisted of 20 μM PIP2, 2 μM ATP, 0.5 μCi [γ-^33P] ATP, 3.4 nM PI3Kδ. Reactions were incubated for 120 min and terminated by the addition of 40 μL SPA beads suspended in quench buffer: 163 mM potassium phosphate pH 7.8, 20% glycerol, 25 mM EDTA. The final concentration of SPA beads is 1.0 mg/mL. After the plate sealing, plates were shaken overnight at room temperature and centrifuged at 1500 rpm for 10 min, the radioactivity of the product was determined by scintillation counting on Topcount (PerkinElmer). IC50 determination was performed by fitting the curve of percent of the solvent control activity versus the log of the inhibitor concentration using the GraphPad Prism 6.0 software.

PI3Kγ (p110γ) = PI3Kγ (p110γ) (Homo sapiens (Human), UniProt P48736); assay: PI3K-γ scintillation proximity assay; assay type: biochemical; conditions: recombinant human PI3Kγ 13 nM, 20 μM PIP2, 2 μM ATP, 120 min, room temperature
Description: Example B. PI3K-γ Scintillation Proximity Assay Materials: [γ-^33P]ATP (10 mCi/mL) and Wheat Germ Agglutinin (WGA) YSi SPA Scintillation Beads was purchased from Perkin Elmer (Waltham, Mass.). Lipid kinase substrate, D-myo-Phosphatidylinositol 4,5-bisphosphate (PtdIns(4,5)P2)D (+)-sn-1,2-di-O-octanoylglyceryl, 3-O-phospho linked (PIP2), CAS 204858-53-7, was purchased from Echelon Biosciences (Salt Lake City, Utah). PI3Kγ (p110γ) Recombinant Human Protein was purchased from Life technology (Grand Island, N.Y.). ATP, MgCl2, DTT, EDTA, MOPS and CHAPS were purchased from Sigma Aldrich (St. Louis, Mo.). The kinase reaction was conducted in polystyrene 384-well Greiner Bio-one white plate from Thermo Fisher Scientific in a final volume of 25 μL. Inhibitors were first diluted serially in DMSO and added to the plate wells before the addition of other reaction components. The final concentration of DMSO in the assay was 2%. The PI3Kγ assay was carried out at room temperature in 20 mM MOPS, pH 6.7, 10 mM MgCl2, 5 mM DTT and CHAPS 0.03%. Reactions were initiated by the addition of ATP, the final reaction mixture consisted of 20 μM PIP2, 2 μM ATP, 0.5 μCi [γ-^33P] ATP, 13 nM PI3Kγ. Reactions were incubated for 120 min and terminated by the addition of 40 μL SPA beads suspended in quench buffer: 163 mM potassium phosphate pH 7.8, 20% glycerol, 25 mM EDTA. The final concentration of SPA beads is 1.0 mg/mL. After the plate sealing, plates were shaken overnight at room temperature and centrifuged at 1500 rpm for 10 min, the radioactivity of the product was determined by scintillation counting on Topcount (Perkin-Elmer). IC50 determination was performed by fitting the curve of percent of the solvent control activity versus the log of the inhibitor concentration using the GraphPad Prism 6.0 software.

[2] = Homo sapiens, THP-1, serum starved THP-1 cells

Sequence of PI3Kγ (p110γ) (P48736 whole entry): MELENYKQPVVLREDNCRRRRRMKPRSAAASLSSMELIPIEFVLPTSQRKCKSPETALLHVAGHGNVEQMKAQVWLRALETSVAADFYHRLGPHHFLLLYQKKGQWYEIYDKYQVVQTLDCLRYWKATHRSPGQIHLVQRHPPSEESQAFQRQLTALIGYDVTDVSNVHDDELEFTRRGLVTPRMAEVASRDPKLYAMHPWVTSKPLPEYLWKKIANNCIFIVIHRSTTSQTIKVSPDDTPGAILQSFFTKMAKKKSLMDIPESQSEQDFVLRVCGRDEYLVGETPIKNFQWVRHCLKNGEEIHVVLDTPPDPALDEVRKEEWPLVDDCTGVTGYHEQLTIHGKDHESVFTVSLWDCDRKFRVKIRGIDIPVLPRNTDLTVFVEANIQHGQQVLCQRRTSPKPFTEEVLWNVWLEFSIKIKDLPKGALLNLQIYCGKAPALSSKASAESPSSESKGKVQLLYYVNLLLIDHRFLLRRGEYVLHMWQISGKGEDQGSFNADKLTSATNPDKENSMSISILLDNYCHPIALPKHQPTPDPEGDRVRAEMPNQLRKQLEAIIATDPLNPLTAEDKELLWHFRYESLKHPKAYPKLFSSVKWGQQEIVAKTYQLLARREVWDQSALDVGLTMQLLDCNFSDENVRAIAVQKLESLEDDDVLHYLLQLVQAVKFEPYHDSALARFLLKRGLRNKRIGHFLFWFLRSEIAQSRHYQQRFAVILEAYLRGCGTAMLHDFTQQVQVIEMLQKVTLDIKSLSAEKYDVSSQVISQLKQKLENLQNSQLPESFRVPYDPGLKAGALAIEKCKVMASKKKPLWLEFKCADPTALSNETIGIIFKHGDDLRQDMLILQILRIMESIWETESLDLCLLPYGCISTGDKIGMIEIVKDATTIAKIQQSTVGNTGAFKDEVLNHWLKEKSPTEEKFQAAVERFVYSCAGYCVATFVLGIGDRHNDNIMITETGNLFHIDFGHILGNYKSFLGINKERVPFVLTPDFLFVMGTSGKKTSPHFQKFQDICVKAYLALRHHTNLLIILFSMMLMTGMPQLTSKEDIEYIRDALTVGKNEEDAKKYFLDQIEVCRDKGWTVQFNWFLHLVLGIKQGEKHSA
Sequence of PI3Kδ (p110δ/p85α) (O00329 whole entry): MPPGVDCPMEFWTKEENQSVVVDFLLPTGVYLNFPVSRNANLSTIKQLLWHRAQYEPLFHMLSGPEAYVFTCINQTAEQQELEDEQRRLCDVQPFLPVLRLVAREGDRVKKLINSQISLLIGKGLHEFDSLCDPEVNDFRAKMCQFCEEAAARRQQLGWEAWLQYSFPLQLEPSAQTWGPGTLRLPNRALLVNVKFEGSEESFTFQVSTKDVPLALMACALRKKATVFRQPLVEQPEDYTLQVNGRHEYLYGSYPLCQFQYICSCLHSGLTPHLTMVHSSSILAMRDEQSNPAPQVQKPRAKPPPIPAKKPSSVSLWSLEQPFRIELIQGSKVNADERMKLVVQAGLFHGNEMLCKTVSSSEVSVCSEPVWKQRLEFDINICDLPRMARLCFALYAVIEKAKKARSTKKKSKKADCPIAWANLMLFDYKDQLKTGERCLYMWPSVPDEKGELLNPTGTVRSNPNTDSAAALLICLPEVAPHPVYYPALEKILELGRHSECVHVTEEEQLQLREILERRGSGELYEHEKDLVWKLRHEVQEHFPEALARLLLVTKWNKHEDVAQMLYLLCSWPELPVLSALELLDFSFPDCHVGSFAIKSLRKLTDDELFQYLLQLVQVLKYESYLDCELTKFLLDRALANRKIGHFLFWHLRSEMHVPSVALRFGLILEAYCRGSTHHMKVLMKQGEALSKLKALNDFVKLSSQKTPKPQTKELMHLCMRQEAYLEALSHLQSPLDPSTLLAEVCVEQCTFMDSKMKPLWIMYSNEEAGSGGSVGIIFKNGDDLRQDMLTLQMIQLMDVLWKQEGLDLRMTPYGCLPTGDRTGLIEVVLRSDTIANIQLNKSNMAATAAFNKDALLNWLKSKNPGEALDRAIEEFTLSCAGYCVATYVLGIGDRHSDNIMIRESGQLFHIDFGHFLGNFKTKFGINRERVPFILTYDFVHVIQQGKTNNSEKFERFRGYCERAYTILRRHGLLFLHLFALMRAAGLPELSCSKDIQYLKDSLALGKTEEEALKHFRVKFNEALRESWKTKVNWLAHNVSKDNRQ
Sequence of PI3Kδ (p110δ/p85α) (P27986 whole entry partner): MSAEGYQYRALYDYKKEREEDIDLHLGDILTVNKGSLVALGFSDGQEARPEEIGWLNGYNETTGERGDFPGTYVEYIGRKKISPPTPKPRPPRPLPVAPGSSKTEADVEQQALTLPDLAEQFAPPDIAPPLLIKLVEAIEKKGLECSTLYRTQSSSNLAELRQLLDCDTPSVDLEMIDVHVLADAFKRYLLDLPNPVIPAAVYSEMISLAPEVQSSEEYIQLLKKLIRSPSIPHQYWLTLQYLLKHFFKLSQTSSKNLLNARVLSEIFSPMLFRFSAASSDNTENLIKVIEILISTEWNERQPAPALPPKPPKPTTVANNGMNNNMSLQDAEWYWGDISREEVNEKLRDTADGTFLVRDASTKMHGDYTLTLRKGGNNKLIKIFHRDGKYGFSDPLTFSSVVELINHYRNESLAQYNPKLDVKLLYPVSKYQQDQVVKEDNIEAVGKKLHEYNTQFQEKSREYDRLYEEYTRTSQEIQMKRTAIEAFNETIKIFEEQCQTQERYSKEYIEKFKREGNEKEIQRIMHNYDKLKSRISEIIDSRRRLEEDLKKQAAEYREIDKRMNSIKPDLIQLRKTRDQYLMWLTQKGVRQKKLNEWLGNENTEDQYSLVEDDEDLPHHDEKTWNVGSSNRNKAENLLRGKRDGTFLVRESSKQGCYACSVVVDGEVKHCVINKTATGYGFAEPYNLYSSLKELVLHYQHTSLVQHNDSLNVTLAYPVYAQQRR

| IC50 [1, 2] [µM] | IC50 (PI3Kδ (p110δ/p85α)) [µM] | IC50 (PI3Kγ (p110γ)) [µM] | SMILES | IC50 ([1]; serum starved THP-1 cells) [µM] |
| --- | --- | --- | --- | --- |
| > 1 | 0.1 to 0.5 | < 0.1 | Cc1[nH]c(-c2cc(-c3cc4c(c(S(C)(=O)=O)c3)C(=O)N([C@@H](C)C3CC3)C4)ccn2)nc1C(=O)NC1CC(O)C1 (mixture of isomers) [Example 7f, (S)-2-(4-(2-(1-Cyclopropylethyl)-7-(methylsulfonyl)-1-oxoisoindolin-5-yl)pyridin-2-yl)-N-(3-hydroxycyclobutyl)-4-methyl-1H-imidazole-5-carboxamide, trifluoroacetate salt (mixture of two diastereomers)] | – |
| 0.1 to 0.5 | 0.1 to 0.5 | < 0.1 | Cc1[nH]c(-c2cc(-c3cc4c(c(S(C)(=O)=O)c3)C(=O)N([C@@H](C)C3CC3)C4)ccn2)nc1C(=O)NC1CCOC1 (mixture of isomers) [Example 7n, 2-(4-(2-((S)-1-Cyclopropylethyl)-7-(methylsulfonyl)-1-oxoisoindolin-5-yl)pyridin-2-yl)-4-methyl-N-(tetrahydrofuran-3-yl)-1H-imidazole-5-carboxamide, trifluoroacetate salt (mixture of two diastereomers)] | – |
| 0.5 to 1 | 0.5 to 2 | < 0.1 | Cc1nc(-c2cc(-c3cc4c(c(S(C)(=N)=O)c3)C(=O)N([C@@H](C)C3CC3)C4)ccn2)[nH]c1C (single isomer, unassigned) [Example 22] | – |
| – | > 2 | < 0.1 | Cc1nc(-c2cc(-c3cc4c(c(S(C)(=O)=O)c3)C(=O)N([C@@H](C)C3CC3)C4)cnn2)[nH]c1C [Example 8, (S)-2-(1-Cyclopropylethyl)-5-(6-(4,5-dimethyl-1H-imidazol-2-yl)pyridazin-4-yl)-7-(methylsulfonyl)isoindolin-1-one Trifluoroacetate Salt] | – |
| – | > 2 | < 0.1 | Cc1nc(-c2cc(-c3cc4c(c(C(O)CO)c3)C(=O)N([C@@H](C)C3CC3)C4)cnn2)[nH]c1C (stereo partly drawn) [Example 19, 2-((S)-1-Cyclopropylethyl)-7-(1,2-dihydroxyethyl)-5-(6-(4,5-dimethyl-1H-imidazol-2-yl)pyridazin-4-yl)isoindolin-1-one, Trifluoroacetate Salt] | – |

The remaining lines, values behind:

| SMILES | IC50 [1, 2] [µM] | IC50 (PI3Kδ (p110δ/p85α)) [µM] | IC50 (PI3Kγ (p110γ)) [µM] | IC50 ([1]; serum starved THP-1 cells) [µM] |
| --- | --- | --- | --- | --- |
| Cc1nc(-c2cc(-c3cc4c(c(S(C)(=O)=O)c3)C(=O)N([C@@H](C)C3CC3)C4)ccn2)[nH]c1C(=O)NC(C)C(F)(F)F (single isomer, unassigned) [Example 7g] | – | 0.1 to 0.5 | < 0.1 | > 1 |
| CCC(C)NC(=O)c1[nH]c(-c2cc(-c3cc4c(c(S(C)(=O)=O)c3)C(=O)N([C@@H](C)C3CC3)C4)ccn2)nc1C (single isomer, unassigned) [Example 7l] | – | 0.1 to 0.5 | < 0.1 | 0.1 to 0.5 |
| Cc1cc(-c2cc(-c3ccc4c(c3)CN([C@@H](C)C3CC3)C4=O)cnn2)[nH]n1 [Example 11, (S)-2-(1-Cyclopropylethyl)-5-(6-(3-methyl-1H-pyrazol-5-yl)pyridazin-4-yl)isoindolin-1-one Trifluoroacetate Salt] | – | > 2 | 0.5 to 2 | – |
| Cc1nnc(-c2cc(-c3ccc4c(c3)CN([C@@H](C)C3CC3)C4=O)ccn2)[nH]1 [Example 13, (S)-2-(1-Cyclopropylethyl)-5-(2-(5-methyl-4H-1,2,4-triazol-3-yl)pyridin-4-yl)isoindolin-1-one] | – | > 2 | < 0.1 | – |
| Cc1nc(-c2cc(-c3cc4c(c(S(C)(=N)=O)c3)C(=O)N([C@@H](C)C3CC3)C4)ccn2)[nH]c1C (stereo partly drawn) [Example 21, 2-((S)-1-Cyclopropylethyl)-5-(2-(4,5-dimethyl-1H-imidazol-2-yl)pyridin-4-yl)-7-(S-methylsulfonimidoyl)isoindolin-1-one] | – | – | – | 0.5 to 1 |
| CN=S(C)(=O)c1cc(-c2ccnc(-c3nc(C)c(C)[nH]3)c2)cc2c1C(=O)N([C@@H](C)C1CC1)C2 (stereo partly drawn) [Example 24, 2-((S)-1-Cyclopropylethyl)-5-(2-(4,5-dimethyl-1H-imidazol-2-yl)pyridin-4-yl)-7-(N,S-dimethylsulfonimidoyl)isoindolin-1-one] | – | – | – | 0.1 to 0.5 |

From patent US11396502B2, “Substituted heterocyclic derivatives as PI3K inhibitors” (Incyte Corporation, priority 2018, dated 2022)
